{"source": "patent US11547761B1", "about": "“Antibody adjuvant conjugates” (The Board of Trustees of the Leland Stanford Junior …, priority 2016, dated 2023)", "key": {"protein A": {"target": "protein A (Staphylococcus aureus, UniProt P38507)", "conditions": "50 ug/ml in PBS, overnight, SDS-PAGE of beads and supernatants", "method": "Beads were pelleted by centrifugation, supernatant was removed, and residual liquid was removed from the beads using a fine pipette tip. Non-reducing Laemmli sample buffer (100 ul) was added to the beads. Beads and supernatants were heated to 90° C. for 5 minutes and equal fractions were analyzed by SDS-PAGE (4-12% NUPAGE gel, MOPS buffer) followed by staining with Coomassie (GelCode™ Blue, ThermoFisher). Molecular weight standard is SeeBlue® Plus 2 marker (ThermoFisher LC5925)."}, "[1]": {"target": "T1, recombinant human CD64 protein (Homo sapiens, UniProt P12314)", "T1 construct": "purchased R&D Systems", "T1 sequence (P12314 16-374)": "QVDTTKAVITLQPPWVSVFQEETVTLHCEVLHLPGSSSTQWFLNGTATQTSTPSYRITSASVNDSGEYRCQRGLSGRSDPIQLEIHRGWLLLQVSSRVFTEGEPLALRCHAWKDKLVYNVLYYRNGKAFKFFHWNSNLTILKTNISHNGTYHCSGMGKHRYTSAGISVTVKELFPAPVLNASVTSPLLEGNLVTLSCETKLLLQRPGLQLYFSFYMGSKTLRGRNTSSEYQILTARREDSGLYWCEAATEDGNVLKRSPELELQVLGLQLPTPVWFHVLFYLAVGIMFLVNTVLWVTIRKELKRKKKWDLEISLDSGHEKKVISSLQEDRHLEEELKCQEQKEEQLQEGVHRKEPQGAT", "assay": "ELISA binding to CD64", "conditions": "titration", "method": "Maxysorp ELISA plates were coated overnight with 1.5 ug/ml recombinant human CD64 protein (R&D Systems). Plates were blocked with PBS containing 1% BSA, and incubated with a titration of Rituximab or Rituximab immunoconjugates (Rituximab BB-01). Bound antibodies were detected with Peroxidase conjugated AffiniPure F(ab′)2 Fragment Goat Anti-Human IgG (Jackson) using TMB color development and absorbance at 450 nm was measured after stopping the reaction."}, "[2]": {"system": "human APCs (myeloid cells)", "assay": "APC-tumor co-culture / myeloid cell stimulation, surface markers by flow cytometry", "type": "cell-based", "conditions": "18 hours of stimulation", "text": "(§1) Human antigen presenting cells (APCs) were negatively selected from human peripheral blood mononuclear cells obtained from healthy blood donors (Stanford Blood Center) by density gradient centrifugation using a RosetteSep Human Monocyte Enrichment Cocktail (Stem Cell Technologies) containing monoclonal antibodies against CD2, CD3, CD8, CD19, CD56, CD66b and CD235a. Immature APCs were subsequently purified to >97% purity via negative selection using an EasySep Human Monocyte Enrichment Kit without CD16 depletion containing monoclonal antibodies against CD2, CD3, CD19, CD20, CD56, CD66b, CD123 and CD235a.\nTumor cells were resuspended in PBS with 0.1% fetal bovine serum (FBS) at 1 to 10×10^6 cells/mL. Cells were subsequently incubated with 2 μM CFSE to yield a final concentration of 1 μM. The reaction was ended after 2 minutes via the addition of 10 mL complete medium with 10% FBS and washed once with complete medium. Cells were either fixed in 2% paraformaldehyde and washed three times with PBS or left unfixed prior to freezing the cells in 10% DMSO, 20% FBS and 70% medium.\n(§2) 2×10^5 APCs were incubated with or without 6.5×10^5 autologous or allogeneic CFSE-labeled tumor cells in 96-well plates (Corning) containing IMDM medium (Gibco) supplemented with 10% fetal bovine serum, 100 U/mL penicillin, 100 μg/mL streptomycin, 2 mM L-glutamine, sodium pyruvate, non-essential amino acids, 50 μM 2-ME and, where indicated, various concentrations of anti-tumor antibody and the indicated adjuvants. Cells and cell-free supernatants were analyzed after 18 hours via flow cytometry.\nas §1, with “[…]” for “CD2, CD3, CD8, CD19, CD56, CD66b”, “[…].” for “CD235a.”, “CD14, CD16, CD40, CD86, CD123,” for “CD2, CD3, CD19, CD20, CD56, CD66b, CD123”\nas §2, with “antibody.” for “anti-tumor antibody and the indicated adjuvants.”\n(§3) 2×10^5 APCs were incubated with or without 6.5×10^5 allogeneic CFSE-labeled tumor cells in 96-well plates (Corning) containing IMDM medium (Gibco) supplemented with 10% fetal bovine serum, 100 U/mL penicillin, 100 μg/mL streptomycin, 2 mM L-glutamine, sodium pyruvate, non-essential amino acids and, where indicated, various concentrations of unconjugated CD20 antibody, and immunoconjugates of the invention were prepared according to the examples above. Cells and cell-free supernatants were analyzed after 18 hours via flow cytometry or ELISA."}, "[3]": {"system": "human APCs (myeloid cells)", "assay": "Cytokine secretion from human APCs / myeloid cells (cell free supernatants)", "type": "cell-based", "conditions": "18 hours", "method": "After 18 hours, cell free supernatants were analyzed for cytokine secretion via cytokine bead arrays; n=3. P-values≤0.05 depicted by *, P-values≤0.01 depicted by **, P-values≤0.001 depicted by ***, P-values≤0.0001 depicted by ****.\nas §2, with “Cells and cell-free supernatants were analyzed after 18 hours via flow cytometry.” left out\nWhile the expression of T cell stimulatory molecules such as CD40, CD86 and HLA-DR is necessary for effective T cell activation, APCs also influence the nature of the ensuing immune response through the secretion of cytokines. Therefore, the capacity of immunoconjugates to elicit cytokine secretion in human APCs following stimulation was investigated as described above.\nThe capacity of these immunoconjugates to elicit cytokine secretion in human APCs following stimulation was investigated as described in Example 3 above.\nas §3, with “Cells and cell-free supernatants were analyzed after 18 hours via flow cytometry or ELISA.” left out"}}, "data": [{"substance": "Rituximab [reference compound]", "values": [{"measurement": "binding to protein A", "setting": "protein A", "result": "bind to protein A"}, {"measurement": "binding to CD64", "setting": "[1]", "result": "comparable binding to CD64"}, {"measurement": "CD86 upregulation on myeloid cells", "setting": "[2]; compared with the corresponding unconjugated antibody unless the value names another comparator", "result": "the control does not"}, {"measurement": "APC / myeloid / dendritic cell activation (overall)", "setting": "[2]; listed as unconjugated CD20 antibody", "result": "do not"}, {"measurement": "cytokine secretion (overall)", "setting": "[3]", "result": "do not"}]}]}
